Laboratory results published in ChEMBL document CHEMBL1150825, “Anti-HIV prenylated flavonoids from Monotes africanus” (J Nat Prod, 2001).
In brackets after ≈: the same amount, converted by molar mass.

System: Human immunodeficiency virus
Test: Antiviral activity against HIV assessed as protection against virus-induced cytopathicity by cell based XTT assay; call rule not given here
Format: functional, organism-based
[1] = Human immunodeficiency virus 1, read-out: EC50

Row | Structure (SMILES) | EC50 | IC50 (Human immunodeficiency virus 1) [µg/mL] | EC50 [1] [µg/mL]
1 | C=CC(C)(C)c1c(O)cc2c(c1O)C(=O)C[C@@H](c1ccc(O)cc1)O2 | Not Active |  | 
2 | CC(C)=CCc1c(O)c(CC=C(C)C)c2c(c1O)C(=O)[C@H](O)[C@@H](c1ccc(O)cc1)O2 |  | 4.7 (≈ 11.1 µM) | 2.1 (≈ 4.95 µM)
3 | CC(C)=CCc1c(O)c(CC=C(C)C)c2oc(-c3ccc(O)cc3)c(O)c(=O)c2c1O |  | 5.8 (≈ 13.7 µM) | 2.4 (≈ 5.68 µM)
4 | CC(C)=CCC/C(C)=C/Cc1c(O)cc2c(c1O)C(=O)[C@H](O)[C@@H](c1ccc(O)cc1)O2 [BONANNIOL A] | Not Active |  | 
5 | CC(C)=CCc1c(O)c(CC=C(C)C)c2c(c1O)C(=O)C[C@@H](c1ccc(O)cc1)O2 [LONCHOCARPOL A] |  | 2.7 (≈ 6.61 µM) | 1.3 (≈ 3.18 µM)
6 | CC(C)=CCC/C(C)=C/Cc1c(O)cc2oc(-c3ccc(O)cc3)c(O)c(=O)c2c1O [MACARANGIN] | Not Active |  | 
